Patent US8735412B2, “Sulfoximine-substituted anilinopyrimidine derivatives as CDK inhibitors, the production thereof, and use as medicine” (Bayer Intellectual Property GmbH, priority 2008, dated 2014)

Key:
CDK1/CycB = target: T1, CDK1/CycB (Homo sapiens, UniProt P06493); assay: CDK1/CycB kinase assay (Assay 1); assay type: biochemical; settings: 0.5 μM ATP, histon IIIS substrate; read-out: CDK1/CycB (Assay 1) Concentration for 50% inhibition of enzyme activity, IC50
T1 construct: purchased ProQinase GmbH, Freiburg; host or cells: baculovirus-infected insect cells (Sf9)
Description: 10.1 Assay 1: CDK1/CycB Kinase Assay
Recombinant CDK1 and CycB-GST fusion proteins, purified from baculovirus-infected insect cells (Sf9), were purchased from ProQinase GmbH, Freiburg. The histon IIIS used as kinase substrate is commercially available from the company Sigma.
CDK1/CycB (200 ng/measuring point) was incubated for 10 min at 22° C. in the presence of various concentrations of test substances (0 μM, and within the range 0.01-100 μM) in assay buffer [50 mM Tris/HCl pH8.0, 10 mM MgCl2, 0.1 mM Na ortho-vanadate, 1.0 mM dithiothreitol, 0.5 μM adenosine triphosphate (ATP), 10 μg/measuring point histon IIIS, 0.2 μCi/measuring point ^33P-gamma ATP, 0.05% NP40, 1.25% dimethylsulfoxide]. The reaction was stopped by adding EDTA solution (250 mM, pH8.0, 15 μl/measuring point).
(§1) From each reaction mixture, 15 μl was applied to P30 filter strips (from Wallac), and unincorporated ^33P-ATP was removed by washing the filter strips three times, for 10 min each time, in 0.5% phosphoric acid. After drying the filter strips for 1 hour at 70° C., the filter strips were covered with scintillator strips (MeltiLex™ A, from Wallac) and stoved for 1 hour at 90° C. The amount of incorporated ^33P (substrate phosphorylation) was determined by scintillation measurement in a gamma-radiation measuring instrument (Wallac). The measured data were standardized to 0% inhibition (enzyme reaction without inhibitor) and 100% inhibition (all assay components except enzyme). The IC50 values were determined by means of a 4-parameter fit using the company's own software.

[1] = target: T2, VEGF receptor tyrosine kinase-2 (Homo sapiens, UniProt P35968); assay: VEGF receptor-2 kinase assay (Assay 3); assay type: biochemical; settings: 8 μM ATP, poly-(Glu4Tyr) substrate; read-out: VEGF-R2 (Assay 3) Concentration for 50% inhibition of enzyme activity, IC50
T2 construct: GST; made in house; host or cells: baculovirus-infected insect cells (Sf9)
Description: 10.3 Assay 3: VEGF Receptor-2 Kinase Assay
Recombinant VEGF receptor tyrosine kinase-2 was purified as GST fusion protein from baculovirus-infected insect cells (Sf9). Poly-(Glu4Tyr), used as kinase substrate, was purchased from the company Sigma.
VEGF receptor tyrosine kinase (90 ng/measuring point) was incubated for 10 min at 22° C. in the presence of various concentrations of test substances (0 μM, and within the range 0.001-30 μM) in 30 μl assay buffer [40 mM Tris/HCl pH5.5, 10 mM MgCl2, 1 mM MnCl2, 3 μM Na ortho-vanadate, 1.0 mM dithiothreitol, 8 μM adenosine triphosphate (ATP), 0.96 μg/measuring point poly-(Glu4Tyr), 0.2 μCi/measuring point ^33P-gamma ATP, 1.4% dimethylsulfoxide]. The reaction was stopped by adding EDTA solution (250 mM, pH8.0, 15 μl/measuring point).
as §1

[2] = tested on: HeLa-MaTu human cervical carcinoma xenograft; assay: HeLa-MaTu cervical tumor xenograft model on NMRI nude mice; assay type: in vivo; settings: oral, 2x daily on day 5, 6, 12, 13, 19, 20
Description: HeLa-MaTu (EPO-GmbH, Berlin) human cervical carcinoma cells, which were grown in cell culture, were implanted subcutaneously in the flank of female NMRI nude mice. […] The study was terminated as soon as the tumors in one of the groups reached a size of approx. 150 mm^2.
(§2) The growth-inhibiting effect of the compounds was tested in the HeLa-MaTu cervical tumor model as xenograft on NMRI nude mice. […] Treatment of the established tumors was begun on day 4 after inoculation of the tumors.
as §2, §2
(§3) The study was designed for determining the initial response of a human cervical carcinoma xenograft model to treatments with the 5-Br comparative substance V12. The growth-inhibiting effect of the compounds was tested in the HeLa-MaTu cervical tumor model as xenograft on NMRI nude mice. V12 was dissolved completely in the solubilizer 40% polyethylene glycol 400 (PEG 400)/60% water to a final concentration of 0.7 mg/ml (group 2), 0.85 mg/ml (group 3), or 1.0 mg/ml (group 4). Treatment of the established tumors was begun on day 4 after inoculation of the tumors.
HeLa-MaTu (EPO-GmbH, Berlin) human cervical carcinoma cells, which were grown in cell culture, were implanted subcutaneously in the flank of female NMRI nude mice. […] The study was terminated as soon as the tumors in one of the groups reached a size of approx. 160 mm^2.
(§4) The growth-inhibiting effect of the compounds was tested in the HeLa-MaTu cervical tumor model as xenograft on NMRI nude mice. […] Treatment of the established tumors was begun on day 5 after inoculation of the tumors.
as §4, §4
The following test groups were used: • Group 1: Control, treatment with solubilizer (40% PEG 400/60% water) • Group 2: Compound according to WO 2005/037800 prepared according to preparation V14 disclosed above • (6 mg/kg, oral, 2x daily on day 5, 6, 12, 13, 19, 20) • Group 3: Compound according to WO 2005/037800 prepared according to preparation V14 disclosed above • (8 mg/kg, oral, 2× daily on day 5, 6, 12, 13, 19, 20) • Group 4: Compound according to WO 2005/037800 prepared according to preparation V14 disclosed above • (10 mg/kg, oral, 2× daily on day 5, 6, 12, 13, 19, 20)
as §3, with “substance V14.” for “substance V12.”, “mice. V14” for “mice. V12”, “of 0.6” for “of 0.7”, “2), 0.8” for “2), 0.85”, “day 5” for “day 4”

[3] = tested on: HeLa-MaTu cervical carcinoma cells; assay: Proliferation assay (Assay 4), crystal violet staining; assay type: cell-based; settings: Homo sapiens, 96 h, 4 days incubation; read-out: HeLa-MaTu (Assay 4) Concentration for 50% inhibition of cellular proliferation, IC50
Description: 10.4 Assay 4: Proliferation Assay
Cultivated human HeLa-MaTu cervical carcinoma cells (obtained from EPO-GmbH, Berlin) were plated at a density of 3000 cells/measuring point in a 96-well multititer is plate in 200 μl of growth medium (DMEM/HAMS F12, 2 mM L-glutamine, 10% fetal calf serum). After 24 hours the cells of one plate (zero-point plate) were stained with crystal violet (see below), whereas the medium of the other plates was replaced with fresh culture medium (200 μl), to which the test substances had been added at various concentrations (0 μM, and in the range 0.01-30 μM; the final concentration of the solvent dimethylsulfoxide was 0.5%). The cells were incubated for 4 days in the presence of the test substances. Cellular proliferation was determined by staining the cells with crystal violet: the cells were fixed by adding 20 μl/measuring point of an 11% glutaraldehyde solution for 15 min at room temperature. After washing the fixed cells with water three times, the plates were dried at room temperature. The cells were stained by adding 100 μl/measuring point of a 0.1% crystal violet solution (pH adjusted to pH3 by adding acetic acid). After washing the stained cells with water three times, the plates were dried at room temperature. The dye was dissolved by adding 100 μl/measuring point of a 10% acetic acid solution. The extinction was determined photometrically at a wavelength of 595 nm. The percentage change in cell growth was calculated by standardization of the measured values to the extinction values of the zero-point plate (=0%) and the extinction of the untreated (0 μM) cells (=100%). The measured data were standardized to 0% inhibition (cell proliferation without inhibitor) and 100% inhibition (zero-point plate). The IC50 values were determined by means of a 4-parameter fit using the company's own software.

T2 sequence (P35968 20-1356): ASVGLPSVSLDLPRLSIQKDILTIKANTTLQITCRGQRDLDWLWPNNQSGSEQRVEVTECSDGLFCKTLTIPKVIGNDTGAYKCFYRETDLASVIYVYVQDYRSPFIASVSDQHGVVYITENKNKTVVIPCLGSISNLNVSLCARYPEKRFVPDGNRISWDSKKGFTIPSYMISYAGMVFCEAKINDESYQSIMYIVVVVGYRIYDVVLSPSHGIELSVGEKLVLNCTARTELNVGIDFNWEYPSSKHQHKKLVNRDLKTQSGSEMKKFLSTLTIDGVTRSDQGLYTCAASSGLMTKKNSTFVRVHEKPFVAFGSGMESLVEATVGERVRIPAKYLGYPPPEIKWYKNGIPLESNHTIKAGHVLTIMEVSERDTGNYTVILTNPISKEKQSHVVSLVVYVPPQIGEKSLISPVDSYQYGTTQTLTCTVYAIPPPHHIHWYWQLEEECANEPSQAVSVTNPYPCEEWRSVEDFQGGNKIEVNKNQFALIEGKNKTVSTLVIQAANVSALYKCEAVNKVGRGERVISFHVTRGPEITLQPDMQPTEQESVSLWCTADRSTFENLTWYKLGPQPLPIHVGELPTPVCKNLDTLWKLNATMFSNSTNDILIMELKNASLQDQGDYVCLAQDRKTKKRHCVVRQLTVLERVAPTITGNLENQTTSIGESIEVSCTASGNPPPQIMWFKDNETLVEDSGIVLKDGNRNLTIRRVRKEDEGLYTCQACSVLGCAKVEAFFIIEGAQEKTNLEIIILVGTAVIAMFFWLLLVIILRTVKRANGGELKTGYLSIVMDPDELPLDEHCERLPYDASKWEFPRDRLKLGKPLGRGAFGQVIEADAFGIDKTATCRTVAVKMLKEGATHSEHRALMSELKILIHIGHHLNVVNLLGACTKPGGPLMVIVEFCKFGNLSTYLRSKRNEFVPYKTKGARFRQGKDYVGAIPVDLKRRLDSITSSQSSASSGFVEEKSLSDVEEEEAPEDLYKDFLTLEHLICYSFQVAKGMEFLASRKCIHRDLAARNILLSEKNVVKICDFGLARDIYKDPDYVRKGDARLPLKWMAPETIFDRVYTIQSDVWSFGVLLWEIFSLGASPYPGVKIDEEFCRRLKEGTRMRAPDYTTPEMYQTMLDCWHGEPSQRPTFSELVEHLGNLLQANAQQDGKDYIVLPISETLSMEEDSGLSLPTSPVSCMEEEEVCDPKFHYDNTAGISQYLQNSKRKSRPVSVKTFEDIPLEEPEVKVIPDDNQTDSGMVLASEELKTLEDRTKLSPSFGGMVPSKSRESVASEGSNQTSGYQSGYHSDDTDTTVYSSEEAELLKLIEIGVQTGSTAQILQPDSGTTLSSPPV
T1 sequence (P06493 whole entry): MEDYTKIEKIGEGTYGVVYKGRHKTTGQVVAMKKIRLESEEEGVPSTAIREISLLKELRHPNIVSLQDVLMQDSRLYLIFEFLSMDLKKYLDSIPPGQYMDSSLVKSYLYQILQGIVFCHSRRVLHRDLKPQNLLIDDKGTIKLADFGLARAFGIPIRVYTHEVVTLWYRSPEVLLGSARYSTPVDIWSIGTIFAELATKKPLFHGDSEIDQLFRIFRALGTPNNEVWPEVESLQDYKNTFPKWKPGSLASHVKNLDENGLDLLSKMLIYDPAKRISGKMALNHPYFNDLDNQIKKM
T1 sequence (P14635 whole entry partner): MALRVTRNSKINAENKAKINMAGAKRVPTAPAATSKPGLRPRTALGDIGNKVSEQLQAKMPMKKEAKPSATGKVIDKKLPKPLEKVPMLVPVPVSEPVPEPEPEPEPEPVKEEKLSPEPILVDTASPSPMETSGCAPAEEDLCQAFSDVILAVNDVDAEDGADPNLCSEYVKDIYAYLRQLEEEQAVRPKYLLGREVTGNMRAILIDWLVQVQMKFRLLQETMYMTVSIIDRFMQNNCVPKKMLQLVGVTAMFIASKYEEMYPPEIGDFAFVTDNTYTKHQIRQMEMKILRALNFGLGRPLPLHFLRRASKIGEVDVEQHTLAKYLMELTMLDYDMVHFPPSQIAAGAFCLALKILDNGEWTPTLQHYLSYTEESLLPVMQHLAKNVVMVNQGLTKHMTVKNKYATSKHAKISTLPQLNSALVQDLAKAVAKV

Question: How did the IC50 (CDK1/CycB) turn out when `C[C@@H](O)[C@@H](C)Oc1nc(Nc2ccc(S(C)(=N)=O)cc2)ncc1Br` (stereo partly shown) [Example V13] was run?
Answer: 3 nM

Question: What about the IC50 [1] of the same compound?
Answer: 140 nM

Question: And the “reduction of tumor weight at the end of the study to % of the control group” value ([2]; 10 mg/kg (group 4), day 20)?
Answer: 23%

Question: And the “tolerability of the cyclic treatment regimen” value ([2]; 10 mg/kg)?
Answer: well-tolerated

Question: What about the “effect on tumor growth (in words)” value ([2]; 6, 8, 10 mg/kg) of the same compound?
Answer: dose-dependent inhibition of tumor growth

Question: What about the response vs control in vivo at 10 mg/kg ([2]; Mus musculus, 480 h, 10 mg/kg (group 4), day 20, read-out: treatment/control ratio T/C (tumor weight)) of the same compound?
Answer: 23%

Question: What about the IC50 [3] of the same compound?
Answer: 9 nM
